Measured values published in PMC12281475, “Mediator Kinase Inhibitor Selectivity and Activity in Colorectal Cancer” (ACS Chemical Biology, 2025).

Assays:
[1] = biological target: T1, CDK1_CycE1 (Homo sapiens, UniProt P06493); test: Radiometric protein kinase assay (33PanQinase), CDK1_CycE1; assay type: biochemical
T1 construct: purchased Reaction Biology

[2] = biological target: T2, CDK9_CycK (Homo sapiens, UniProt P50750); test: Radiometric protein kinase assay (33PanQinase), CDK9_CycK; assay type: biochemical
T2 construct: purchased Reaction Biology

[3] = biological target: T3, CDK2_CycE1 (Homo sapiens, UniProt P24941); test: Radiometric protein kinase assay (33PanQinase), CDK2_CycE1; assay type: biochemical
T3 construct: purchased Reaction Biology

[4] = biological target: CDK17_p35NCK (Homo sapiens, UniProt Q00537); test: Radiometric protein kinase assay (33PanQinase), CDK17_p35NCK; assay type: biochemical
[5] = biological target: T4, CDK19_CycC (Homo sapiens, UniProt Q9BWU1); test: Radiometric protein kinase assay (33PanQinase), CDK19_CycC; assay type: biochemical
T4 construct: purchased Reaction Biology

[6] = biological target: T5, CDK8_CycC (Homo sapiens, UniProt P49336); test: Radiometric protein kinase assay (33PanQinase), CDK8_CycC; assay type: biochemical; details: slope of the IC50 fit
T5 construct: purchased Reaction Biology

[7] = biological target: T6, CDK2_CycD1 (Homo sapiens, UniProt P24941); test: Radiometric protein kinase assay (33PanQinase), CDK2_CycD1; assay type: biochemical; details: slope of the IC50 fit
T6 construct: purchased Reaction Biology

[8] = biological target: T7, CDK1_CycB1 (Homo sapiens, UniProt P06493); test: Radiometric protein kinase assay (33PanQinase), CDK1_CycB1; assay type: biochemical
T7 construct: purchased Reaction Biology
T7 sequence (P06493 whole entry): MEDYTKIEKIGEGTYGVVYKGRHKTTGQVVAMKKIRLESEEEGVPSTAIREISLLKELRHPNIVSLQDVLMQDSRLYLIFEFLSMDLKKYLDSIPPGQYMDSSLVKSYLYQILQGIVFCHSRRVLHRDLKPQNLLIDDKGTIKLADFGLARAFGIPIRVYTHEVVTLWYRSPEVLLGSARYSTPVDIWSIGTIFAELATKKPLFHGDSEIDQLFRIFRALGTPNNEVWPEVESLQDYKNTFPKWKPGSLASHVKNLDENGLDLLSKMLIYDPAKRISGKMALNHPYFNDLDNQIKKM
T7 sequence (P14635 whole entry partner): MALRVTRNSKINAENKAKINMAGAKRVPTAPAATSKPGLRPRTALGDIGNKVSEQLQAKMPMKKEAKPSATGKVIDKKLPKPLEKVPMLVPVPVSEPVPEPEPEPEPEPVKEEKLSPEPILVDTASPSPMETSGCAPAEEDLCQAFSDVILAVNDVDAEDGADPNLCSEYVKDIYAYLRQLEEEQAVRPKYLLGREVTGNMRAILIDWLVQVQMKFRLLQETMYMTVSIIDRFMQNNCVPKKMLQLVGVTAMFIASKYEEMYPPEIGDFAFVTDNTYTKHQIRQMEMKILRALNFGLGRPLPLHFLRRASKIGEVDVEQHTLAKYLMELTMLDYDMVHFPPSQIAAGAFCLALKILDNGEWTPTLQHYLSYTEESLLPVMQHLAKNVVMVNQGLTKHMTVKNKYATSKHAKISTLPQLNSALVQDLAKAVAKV

[9] = biological target: T8, CDK1_CycA2 (Homo sapiens, UniProt P06493); test: Radiometric protein kinase assay (33PanQinase), CDK1_CycA2; assay type: biochemical
T8 construct: purchased Reaction Biology

[10] = biological target: T9, CDK16_CycY (Homo sapiens, UniProt Q00536); test: Radiometric protein kinase assay (33PanQinase), CDK16_CycY; assay type: biochemical
T9 construct: purchased Reaction Biology

[11] = biological target: T10, CDK12_CycK (Homo sapiens, UniProt Q9NYV4); test: Radiometric protein kinase assay (33PanQinase), CDK12_CycK; assay type: biochemical
T10 construct: purchased Reaction Biology

[12] = biological target: CDK18_CycY (Homo sapiens, UniProt Q07002); test: Radiometric protein kinase assay (33PanQinase), CDK18_CycY; assay type: biochemical
CDK18_CycY, sequence (Q07002 whole entry): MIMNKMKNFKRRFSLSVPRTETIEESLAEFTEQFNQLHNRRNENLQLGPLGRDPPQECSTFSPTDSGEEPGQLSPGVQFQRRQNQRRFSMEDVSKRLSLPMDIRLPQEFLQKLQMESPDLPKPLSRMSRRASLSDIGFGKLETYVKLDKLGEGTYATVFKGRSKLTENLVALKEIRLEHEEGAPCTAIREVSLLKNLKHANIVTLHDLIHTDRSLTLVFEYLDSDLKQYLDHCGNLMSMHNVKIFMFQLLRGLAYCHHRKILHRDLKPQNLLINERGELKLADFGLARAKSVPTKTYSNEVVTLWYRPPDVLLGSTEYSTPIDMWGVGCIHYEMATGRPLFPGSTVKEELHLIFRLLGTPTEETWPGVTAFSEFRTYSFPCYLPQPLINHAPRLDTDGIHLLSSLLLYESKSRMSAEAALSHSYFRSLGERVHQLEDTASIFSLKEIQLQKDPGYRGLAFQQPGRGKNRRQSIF
CDK18_CycY, sequence (Q8ND76 whole entry partner): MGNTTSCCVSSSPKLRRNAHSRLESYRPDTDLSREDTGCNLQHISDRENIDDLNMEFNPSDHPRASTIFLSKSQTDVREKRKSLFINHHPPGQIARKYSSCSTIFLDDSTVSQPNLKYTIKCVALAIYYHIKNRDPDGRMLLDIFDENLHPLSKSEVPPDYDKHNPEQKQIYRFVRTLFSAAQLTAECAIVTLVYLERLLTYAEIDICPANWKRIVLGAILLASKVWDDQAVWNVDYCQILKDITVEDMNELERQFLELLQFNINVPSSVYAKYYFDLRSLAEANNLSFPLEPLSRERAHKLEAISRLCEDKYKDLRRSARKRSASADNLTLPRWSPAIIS

[13] = biological target: T11, CDK13_CycK (Homo sapiens, UniProt Q14004); test: Radiometric protein kinase assay (33PanQinase), CDK13_CycK; assay type: biochemical; details: slope of the IC50 fit
T11 construct: purchased Reaction Biology

[14] = biological target: CDK20_CycT1 (Homo sapiens, UniProt Q8IZL9); test: Radiometric protein kinase assay (33PanQinase), CDK20_CycT1; assay type: biochemical
[15] = biological target: CDK14_CycY (Homo sapiens, UniProt O94921); test: Radiometric protein kinase assay (33PanQinase), CDK14_CycY; assay type: biochemical
CDK14_CycY, sequence (O94921 whole entry): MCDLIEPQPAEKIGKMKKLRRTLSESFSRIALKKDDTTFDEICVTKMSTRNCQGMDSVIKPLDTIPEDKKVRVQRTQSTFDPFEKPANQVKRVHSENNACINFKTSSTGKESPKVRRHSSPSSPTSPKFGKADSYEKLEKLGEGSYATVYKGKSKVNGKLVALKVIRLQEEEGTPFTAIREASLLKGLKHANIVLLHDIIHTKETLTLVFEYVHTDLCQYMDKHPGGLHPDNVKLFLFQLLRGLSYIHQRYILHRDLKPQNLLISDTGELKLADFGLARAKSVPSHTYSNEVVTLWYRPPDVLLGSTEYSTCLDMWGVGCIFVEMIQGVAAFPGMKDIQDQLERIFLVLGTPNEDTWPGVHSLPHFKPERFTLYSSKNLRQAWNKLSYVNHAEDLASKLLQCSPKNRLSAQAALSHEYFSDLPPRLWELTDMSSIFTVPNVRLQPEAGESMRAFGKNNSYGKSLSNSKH
CDK14_CycY, sequence (Q8ND76 whole entry partner): as the sequence (Q8ND76 whole entry partner) above

[16] = biological target: T12, CDK3_CycE1 (Homo sapiens, UniProt Q00526); test: Radiometric protein kinase assay (33PanQinase), CDK3_CycE1; assay type: biochemical; details: slope of the IC50 fit
T12 construct: purchased Reaction Biology

[17] = biological target: T13, CDK4_CycD3 (Homo sapiens, UniProt P11802); test: Radiometric protein kinase assay (33PanQinase), CDK4_CycD3; assay type: biochemical
T13 construct: purchased Reaction Biology
T13 sequence (P11802 whole entry): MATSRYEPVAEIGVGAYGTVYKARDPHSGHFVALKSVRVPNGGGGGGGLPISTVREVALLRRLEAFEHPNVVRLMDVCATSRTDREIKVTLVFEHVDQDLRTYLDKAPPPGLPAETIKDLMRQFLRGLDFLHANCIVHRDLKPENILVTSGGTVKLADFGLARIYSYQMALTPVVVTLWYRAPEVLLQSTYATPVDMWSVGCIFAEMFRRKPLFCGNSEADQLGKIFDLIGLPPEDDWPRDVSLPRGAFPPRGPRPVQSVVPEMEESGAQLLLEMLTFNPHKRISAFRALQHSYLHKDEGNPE
T13 sequence (P30281 whole entry partner): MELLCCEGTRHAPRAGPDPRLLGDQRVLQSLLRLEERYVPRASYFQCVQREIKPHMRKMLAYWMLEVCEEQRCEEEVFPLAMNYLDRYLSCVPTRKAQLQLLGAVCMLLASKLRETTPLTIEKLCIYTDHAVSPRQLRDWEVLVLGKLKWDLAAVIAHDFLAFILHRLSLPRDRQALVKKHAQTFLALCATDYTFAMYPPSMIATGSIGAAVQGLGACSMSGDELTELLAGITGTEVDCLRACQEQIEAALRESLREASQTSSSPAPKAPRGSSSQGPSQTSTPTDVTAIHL

[18] = biological target: T14, CDK9_CycT1 (Homo sapiens, UniProt P50750); test: Radiometric protein kinase assay (33PanQinase), CDK9_CycT1; assay type: biochemical
T14 construct: purchased Reaction Biology

[19] = biological target: T15, CDK5_p35NCK (Homo sapiens, UniProt Q00535); test: Radiometric protein kinase assay (33PanQinase), CDK5_p35NCK; assay type: biochemical
T15 construct: purchased Reaction Biology

[20] = system: CDK8; set-up: method as in numbers not given; details: reporter displacement assay; previously characterized compounds, no method in this paper; ref numbers not given; read-out: IC50 for in vitro CDK8 binding; cited from earlier work
[21] = biological target: T16, CDK4_CycD2 (Homo sapiens, UniProt P11802); test: Radiometric protein kinase assay (33PanQinase), CDK4_CycD2; assay type: biochemical
T16 construct: purchased Reaction Biology
T16 sequence (P11802 whole entry): as the sequence (P11802 whole entry) above
T16 sequence (P30279 whole entry partner): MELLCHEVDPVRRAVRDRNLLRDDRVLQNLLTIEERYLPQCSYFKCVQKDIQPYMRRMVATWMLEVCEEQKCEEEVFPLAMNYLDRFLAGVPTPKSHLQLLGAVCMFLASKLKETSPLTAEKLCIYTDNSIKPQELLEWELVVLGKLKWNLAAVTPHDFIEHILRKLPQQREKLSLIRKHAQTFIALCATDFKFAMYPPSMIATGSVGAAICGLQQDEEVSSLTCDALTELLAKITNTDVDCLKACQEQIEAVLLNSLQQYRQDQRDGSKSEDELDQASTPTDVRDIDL

[22] = biological target: T17, CDK3_CycC (Homo sapiens, UniProt Q00526); test: Radiometric protein kinase assay (33PanQinase), CDK3_CycC; assay type: biochemical
T17 construct: purchased Reaction Biology
T17 sequence (Q00526 whole entry): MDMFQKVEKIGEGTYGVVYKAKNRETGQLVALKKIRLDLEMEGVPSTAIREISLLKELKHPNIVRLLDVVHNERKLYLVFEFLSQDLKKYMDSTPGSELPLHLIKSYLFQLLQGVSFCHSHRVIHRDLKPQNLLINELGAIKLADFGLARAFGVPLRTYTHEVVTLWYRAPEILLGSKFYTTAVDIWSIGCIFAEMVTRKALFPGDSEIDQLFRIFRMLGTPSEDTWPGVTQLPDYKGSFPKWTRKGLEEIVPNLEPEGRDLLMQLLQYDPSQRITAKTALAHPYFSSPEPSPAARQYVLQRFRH
T17 sequence (P24863 whole entry partner): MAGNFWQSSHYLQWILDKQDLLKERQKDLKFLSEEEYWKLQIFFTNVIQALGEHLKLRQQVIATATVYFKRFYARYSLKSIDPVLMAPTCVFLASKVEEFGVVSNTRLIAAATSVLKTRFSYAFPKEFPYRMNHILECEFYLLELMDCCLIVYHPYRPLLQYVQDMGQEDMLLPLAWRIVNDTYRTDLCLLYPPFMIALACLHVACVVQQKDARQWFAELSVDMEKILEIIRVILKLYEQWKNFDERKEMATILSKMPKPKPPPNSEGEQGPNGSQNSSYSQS

[23] = biological target: T18, CDK6_CycD1 (Homo sapiens, UniProt Q00534); test: Radiometric protein kinase assay (33PanQinase), CDK6_CycD1; assay type: biochemical; details: slope of the IC50 fit
T18 construct: purchased Reaction Biology

[24] = biological target: T19, CDK6_CycD2 (Homo sapiens, UniProt Q00534); test: Radiometric protein kinase assay (33PanQinase), CDK6_CycD2; assay type: biochemical
T19 construct: purchased Reaction Biology

[25] = biological target: CDK11B 357-795_CycK (Homo sapiens, UniProt P21127); test: Radiometric protein kinase assay (33PanQinase), CDK11B 357-795_CycK; assay type: biochemical
[26] = biological target: T20, CDK5_p25NCK (Homo sapiens, UniProt Q00535); test: Radiometric protein kinase assay (33PanQinase), CDK5_p25NCK; assay type: biochemical; details: slope of the IC50 fit
T20 construct: purchased Reaction Biology

[27] = biological target: T21, CDK15_CycA2 (Homo sapiens, UniProt Q96Q40); test: Radiometric protein kinase assay (33PanQinase), CDK15_CycA2; assay type: biochemical
T21 construct: purchased Reaction Biology

[28] = biological target: CDK10_CycQ (Homo sapiens, UniProt Q15131); test: Radiometric protein kinase assay (33PanQinase), CDK10_CycQ; assay type: biochemical
[29] = biological target: CDK20_CycH (Homo sapiens, UniProt Q8IZL9); test: Radiometric protein kinase assay (33PanQinase), CDK20_CycH; assay type: biochemical
[30] = biological target: T22, CDK2_CycA2 (Homo sapiens, UniProt P24941); test: Radiometric protein kinase assay (33PanQinase), CDK2_CycA2; assay type: biochemical
T22 construct: purchased Reaction Biology

[31] = biological target: T23, CDK7_CycH_MAT1 (Homo sapiens, UniProt P50613); test: Radiometric protein kinase assay (33PanQinase), CDK7_CycH_MAT1; assay type: biochemical
T23 construct: purchased Reaction Biology
T23 sequence (P50613 whole entry): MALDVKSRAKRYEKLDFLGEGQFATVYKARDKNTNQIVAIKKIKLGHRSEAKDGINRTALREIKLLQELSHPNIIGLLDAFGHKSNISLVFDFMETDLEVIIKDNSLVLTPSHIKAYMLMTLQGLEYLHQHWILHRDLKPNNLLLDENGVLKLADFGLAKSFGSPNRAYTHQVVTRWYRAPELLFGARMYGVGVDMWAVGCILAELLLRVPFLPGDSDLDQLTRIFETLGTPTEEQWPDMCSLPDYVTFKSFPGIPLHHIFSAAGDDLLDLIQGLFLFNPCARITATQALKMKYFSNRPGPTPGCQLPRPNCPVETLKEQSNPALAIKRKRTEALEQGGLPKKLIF
T23 sequence (P51946 whole entry partner): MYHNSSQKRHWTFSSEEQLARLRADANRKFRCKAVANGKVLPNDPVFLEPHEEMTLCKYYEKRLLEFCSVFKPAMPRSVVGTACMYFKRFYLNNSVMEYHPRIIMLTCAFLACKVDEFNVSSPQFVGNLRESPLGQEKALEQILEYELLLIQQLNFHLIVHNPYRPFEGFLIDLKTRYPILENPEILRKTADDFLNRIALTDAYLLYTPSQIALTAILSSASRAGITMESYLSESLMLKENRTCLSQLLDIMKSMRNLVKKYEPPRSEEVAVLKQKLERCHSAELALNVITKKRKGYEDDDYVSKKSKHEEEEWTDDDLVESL
T23 sequence (P51948 whole entry partner): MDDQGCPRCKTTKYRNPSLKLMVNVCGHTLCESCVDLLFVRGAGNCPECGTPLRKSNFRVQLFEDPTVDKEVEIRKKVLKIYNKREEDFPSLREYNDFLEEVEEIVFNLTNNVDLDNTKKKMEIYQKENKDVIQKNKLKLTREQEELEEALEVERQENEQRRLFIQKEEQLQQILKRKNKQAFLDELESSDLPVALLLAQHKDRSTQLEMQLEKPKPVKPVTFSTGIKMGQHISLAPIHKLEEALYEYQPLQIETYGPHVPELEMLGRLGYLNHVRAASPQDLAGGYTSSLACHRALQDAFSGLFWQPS

[32] = biological target: T24, CDK6_CycD3 (Homo sapiens, UniProt Q00534); test: Radiometric protein kinase assay (33PanQinase), CDK6_CycD3; assay type: biochemical
T24 construct: purchased Reaction Biology

[33] = biological target: T25, CDK4_CycD1 (Homo sapiens, UniProt P11802); test: Radiometric protein kinase assay (33PanQinase), CDK4_CycD1; assay type: biochemical
T25 construct: purchased Reaction Biology

[34] = highest assay concentration 1.00E-05 M, read-out: IC50
[35] = highest assay concentration 1.00E-05 M

Cn1ncc2cc(-c3cnc(N)c(Cl)c3N3CCC4(CCNC4=O)CC3)ccc21 [CCT251921]
IC50 [1, 34]: > 10 µM
Hill Slope ([1]; slope of the IC50 fit): -0.77
IC50 [2, 35]: > 10 µM
Hill Slope ([2]; slope of the IC50 fit): -0.77
IC50 [3, 34]: > 10 µM
Hill Slope ([3]; slope of the IC50 fit): -0.94
IC50 [4, 35]: > 10 µM
Hill Slope ([4]; slope of the IC50 fit): -0.39
IC50 [5]: 0.409 µM
Hill Slope ([5]; slope of the IC50 fit): -0.45
Hill Slope [6]: -0.55
Hill Slope [7]: 0
IC50 [8, 35]: > 10 µM
Hill Slope ([8]; slope of the IC50 fit): -0.32
IC50 [9, 34]: > 10 µM
Hill Slope ([9]; slope of the IC50 fit): -0.53
IC50 [10, 35]: > 10 µM
Hill Slope ([10]; slope of the IC50 fit): -0.3
IC50 [11, 35]: > 10 µM
Hill Slope ([11]; slope of the IC50 fit): -0.32
IC50 [12, 35]: > 10 µM
Hill Slope ([12]; slope of the IC50 fit): -0.84
Hill Slope [13]: 0.03
IC50 [14, 35]: > 10 µM
Hill Slope ([14]; slope of the IC50 fit): -0.33
IC50 [15, 35]: > 10 µM
Hill Slope ([15]; slope of the IC50 fit): -0.73
Hill Slope [16]: -0.12
IC50 [17, 35]: > 10 µM
Hill Slope ([17]; slope of the IC50 fit): -0.37
IC50 [18, 35]: > 10 µM
Hill Slope ([18]; slope of the IC50 fit): -1.01
IC50 [19, 35]: > 10 µM
Hill Slope ([19]; slope of the IC50 fit): -0.4
IC50 [20]: 0.0049 µM
IC50 [21, 35]: > 10 µM
Hill Slope ([21]; slope of the IC50 fit): -0.33
IC50 [22]: > 10 µM
Hill Slope ([22]; slope of the IC50 fit): -0.55
Hill Slope [23]: -0.13
IC50 [24, 35]: > 10 µM
Hill Slope ([24]; slope of the IC50 fit): -0.59
IC50 [25, 35]: > 10 µM
Hill Slope ([25]; slope of the IC50 fit): -0.41
Hill Slope [26]: -0.17
IC50 [27, 35]: > 10 µM
Hill Slope ([27]; slope of the IC50 fit): -0.85
IC50 [28, 35]: > 10 µM
Hill Slope ([28]; slope of the IC50 fit): -0.72
IC50 [29, 35]: > 10 µM
Hill Slope ([29]; slope of the IC50 fit): -0.38
IC50 [30, 34]: > 10 µM
Hill Slope ([30]; slope of the IC50 fit): -0.89
IC50 [31, 35]: > 10 µM
Hill Slope ([31]; slope of the IC50 fit): -0.33
IC50 [32, 35]: > 10 µM
Hill Slope ([32]; slope of the IC50 fit): -0.33
IC50 [33, 35]: > 10 µM
Hill Slope ([33]; slope of the IC50 fit): -0.37
